# Experimental data from patent US20050203119A1, “Dihydropyridine compounds for treating or preventing metabolic disorders” (priority 2003, published 2005).
# Legend:
# Male SD rats = details: rat, in vivo
# Description: Male SD rats weighing 350-420 g were anesthetized with 2-3% isoflurane. The femoral artery and vein were catheterized and connected to a mean arterial blood pressure (MAP) and heart rate (HR) monitor and a continuous intravenous infusion pump. Under anesthesia, MAP and HR were recorded 10-20 minutes prior to and during the continuous intravenous infusion of test compounds for 60-70 minutes. The infusion rate, 0.14-0.16 ml/kg/minute, was determined on the basis of vehicle tolerance. The infusion doses, 1.0-1.25 mg/kg/minute, were selected, depending upon the solubility of the compound and effects on MAP and HR of the positive control compounds at the lethal dose. The maximal effective dose or lethal dose of test compounds were determined accordingly.
# [1] = test system: NIDDM male mice (C57BLKS/J-m+/+Lepr db); assay: 7 day baseline glucose test in db/db mice (Example 119); format: in vivo, mouse; details: for Serum Glucose % Pre-Treatment Baseline: 3 hours after dose
# Description: Non-insulin dependent diabetic mellitus (NIDDM) male mice (C57BLKS/J-m+/+Lepr db), weighing 50±5 g and 9-10-week old, were used. The animals were housed in Individually Ventilated Cages Racks (IVC Racks) throughout the experiment and all animals were allowed free access to sterilized Lab chow and sterilized distilled water. Compounds 39, 41 and 64 at 50 mg/kg as well as vehicle (0.5% Methylcellulose) were administered orally once daily for 7 consecutive days to test animals after the first blood sampling (pre-treatment). The post-treatment blood samples were withdrawn from the orbital sinus at 3 hours after administration of daily dose on day 3 and on day 7. Serum glucose levels in the pre- and post-treatment were determined by enzymatic (Mutaratase-GOD) methods. Post-treatment serum glucose values were expressed in percentage of respective pre-treatment values. Percentage reductions were expressed in percentage of pre-treatment values of test substance relative to percentage of pre-treatment values of vehicle. All percentages were calculated and unpaired; Student's t test was then applied to establish significant difference between the test compound-treated and vehicle control groups. Differences are considered significant at P<0.05.
# [2] = Day 3, 50 mg/kg orally once daily
# [3] = Day 7, 50 mg/kg orally once daily
smiles,measurement,setting,value
"CCOC(=O)C1=C(COCCN)NC2=C(C(=O)CC(C)(C)C2)C1c1cccnc1 (centres unmarked) [Compound 39, 2-(2-Amino-ethoxymethyl)-7,7-dimethyl-5-oxo-4-pyridin-3-yl-1,4,5,6,7,8-hexahydro-quinoline-3-carboxylic acid ethyl ester]",Lethal Dose,Male SD rats,>70 mg/kg
same,serum glucose % Reduction relative to vehicle,[1]; [2],(3) %
same,Serum Glucose % Pre-Treatment Baseline,[1]; [2],98.5%
same,serum glucose % Reduction relative to vehicle,[1]; [3],(18) %
same,Serum Glucose % Pre-Treatment Baseline,[1]; [3],82.3%
